Columns and labels:
[1] = Assay C: Hepatocyte clearance; type: in vitro ADME, human; conditions: hepatocyte suspension, 1 μM test compound
Protocol: Assay C: Hepatocyte Clearance
The metabolic degradation of the test compound is assayed in a hepatocyte suspension. Hepatocytes (cryopreserved) are incubated in. Dulbecco's modified eagle medium (supplemented with 3.5 μg glucagon/500 mL, 2.5 mg insulin/500 mL and 3.75 mg/500 mL hydrocortison) containing 5% or 50% species serum.
Following a 30 min preincubation in an incubator (37° C., 10% CO2) 5 μl of test compound solution (80 μM; from 2 mM in DMSO stock solution diluted 1:25 with medium) are added into 395 μl hepatocyte suspension (cell density in the range 0.25-5 Mio cells/mL depending on the species, typically 1 Mio cells/mL; final concentration of test compound 1 μM, final DMSO concentration 0.05%).
The cells are incubated for six hours (incubator, orbital shaker) and samples (25 μl) are taken at 0, 0.5, 1, 2, 4 and 6 hours. Samples are transferred into acetonitrile and pelleted by centrifugation (5 min). The supernatant is transferred to a new 96-deepwell plate, evaporated under nitrogen and resuspended.
Decline of parent compound is analyzed by HPLC-MS/MS
CLint is calculated as follows CL_[…]=Dose/AUC=(C0/CD)/(AUD+clast/k)×1000/60. CO: initial concentration in the incubation [μM], CD: cell density of vital cells [10e6 cells/mL], AUD: area under the data [μM×h], clast: concentration of last data point [μM], k: slope of the regression line for parent decline [h-1].
The calculated in vitro hepatic intrinsic clearance can be scaled up to the intrinsic in vivo hepatic Clearance and used to predict hepatic in vivo blood clearance (CL) by the use of a liver model (well stirred model). CL_[…]_INVIVO [ml/min/kg]=(CL_[…] [μL/min/10e6 cells]×hepatocellularity [10e6 cells/g liver]×liver factor [g/kg body weight])/1000 CL [ml/min/kg]=CL_[…]_INVIVO [ml/min/kg]×hepatic blood flow [ml/min/kg]/(CL_[…]_INVIVO [ml/min/kg]+hepatic blood flow [ml/min/kg]) Qh [%]=CL [ml/min/kg]/hepatic blood flow [ml/min/kg])
(§1) Hepatocellularity, human: 120×10e6 cells/g liver
(§2) Liver factor, human: 25.7 g/kg bodyweight
(§3) Blood flow, human: 21 ml/(min×kg)

human TRPA1 ion channel = human TRPA1 ion channel (Homo sapiens (Human), UniProt O75762); test: Assay A: TRPA1 assay (FLIPR calcium, AITC agonism, HEK293 over-expressing human TRPA1); type: cell-based; conditions: HEK293 over-expressing human TRPA1, AITC 10 μM, FLIPRtetra; read-out: hTRPA1 IC50
Sequence of human TRPA1 ion channel (O75762 whole entry): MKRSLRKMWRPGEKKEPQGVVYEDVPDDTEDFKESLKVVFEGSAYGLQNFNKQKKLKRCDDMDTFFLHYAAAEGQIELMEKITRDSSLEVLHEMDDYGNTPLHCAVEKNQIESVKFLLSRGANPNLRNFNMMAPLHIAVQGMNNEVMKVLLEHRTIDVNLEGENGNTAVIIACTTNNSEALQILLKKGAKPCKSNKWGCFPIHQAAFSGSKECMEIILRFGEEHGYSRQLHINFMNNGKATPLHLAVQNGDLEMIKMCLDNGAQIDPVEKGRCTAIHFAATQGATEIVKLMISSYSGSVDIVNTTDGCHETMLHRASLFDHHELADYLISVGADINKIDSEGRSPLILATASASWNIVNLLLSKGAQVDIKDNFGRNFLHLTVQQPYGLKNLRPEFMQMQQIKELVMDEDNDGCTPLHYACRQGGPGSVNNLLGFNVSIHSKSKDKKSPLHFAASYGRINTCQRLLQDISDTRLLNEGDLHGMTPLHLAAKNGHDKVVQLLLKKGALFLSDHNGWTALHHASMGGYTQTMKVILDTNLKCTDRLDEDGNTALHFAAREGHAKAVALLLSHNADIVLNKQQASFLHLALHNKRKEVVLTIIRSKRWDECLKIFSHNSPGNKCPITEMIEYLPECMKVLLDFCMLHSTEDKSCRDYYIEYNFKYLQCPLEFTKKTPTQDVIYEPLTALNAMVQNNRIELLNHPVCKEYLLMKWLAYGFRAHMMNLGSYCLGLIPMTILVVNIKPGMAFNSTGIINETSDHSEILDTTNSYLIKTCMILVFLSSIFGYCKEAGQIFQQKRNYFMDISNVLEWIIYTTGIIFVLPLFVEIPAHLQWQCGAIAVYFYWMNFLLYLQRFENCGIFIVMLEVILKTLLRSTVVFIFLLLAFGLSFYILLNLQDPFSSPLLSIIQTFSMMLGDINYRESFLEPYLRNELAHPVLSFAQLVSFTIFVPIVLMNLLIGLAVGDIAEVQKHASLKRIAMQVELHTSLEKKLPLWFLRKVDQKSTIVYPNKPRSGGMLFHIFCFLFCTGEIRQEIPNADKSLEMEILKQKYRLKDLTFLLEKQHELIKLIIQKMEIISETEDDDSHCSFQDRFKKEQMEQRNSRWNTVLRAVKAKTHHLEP
Protocol: A human HEK293 cell line over-expressing the human TRPA1 ion channel (Perkin Elmer, Product No. AX-004-PCL) was used as a test system for compound efficacy and potency. Compound activity was determined by measuring the effect of compounds on intracellular calcium concentration induced by AITC (Allylisothiocyanat) agonism in a FLIPRtetra system (Molecular Devices).
The cells were obtained as frozen cells in cryo-vials and stored until use at −150° C. Cells were grown in culture medium (MEM/EBSS medium with 10% FCS and 0.4 mg/ML Geneticin). […] For sub-culturing cells were detached from flasks by Versene. At the day before the assay, cells were detached, washed twice with medium (MEM/EBSS medium with 10% FCS) and 20000 cells in 20 μl/well were seeded to Poly D-Lysin biocoated 384-well plates (black, clear bottom, Cat. 356697) from Corning. Plates were incubated for 24 hours at 37° C./5% CO2 before use in the assay.
The test compounds were dissolved in 100% DMSO at a concentration of 10 mM and in a first step diluted in DMSO to a concentration of 5 mM, followed by serial dilution steps in 100% DMSO. Dilution factor and number of dilution steps may vary according to needs. Typically 8 different concentrations by 1:5 dilutions were prepared, further intermediate dilutions (1:20) of the substances were carried out with HBSS/HEPES buffer (1×HEPES, Cat. 14065 from Gibco, 20 mM HEPES, Cat. 83264 from SIGMA, 0.1% BSA Cat. 11926 from Invitrogen, pH 7,4
At the assay day cells were washed 3× with assay puffer, 20 μL buffer remained in the wells after washing. 10 μL Ca6 kit (Cat. R8191 MolecularDevices) loading buffer in HBSS/HEPES was added to the cells and the plates were incubated with lid for 120 minutes at […]. 10 μL of compound or controls in HBSS/HEPES buffer/5% DMSO from the intermediate dilution plate were carefully added to the wells. […] Finally 10 μL of the agonist AITC 50 μM dissolved in HBSS/HEPES buffer/0.05% DMSO (final concentration 10 μM) was added to the wells followed by an additional read on the FLIPRtetra device for 10 minutes. The area under the signal curve (AUC) after AITC addition was used for IC50/% inhibition calculations
Data Evaluation and Calculation:
Each assay microtiter plate contained wells with vehicle (1% DMSO) controls instead of compound as controls for AITC induced luminescence (100% CTL; high controls) and wells with vehicle controls without AITC as controls for non-specific changes in luminescence (0% CTL; low controls).
The analysis of the data was performed by the calculation of the area under signal curve of the individual wells. Based on this values the % value for the measurement of each substance concentration was calculated (AUC(sample)−AUC(low))*100/(AUC(high)−AUC(low)) using MegaLab software (in house development). The IC50 values were calculated from the % control values using MegaLab software. Calculation: [y=(a−d)/(1+(x/c)^b)+d], a=low value, d=high value; x=cone M; c=IC50 M; b=hill; y=% ctrl

[2] = Assay B: Microsomal clearance; type: in vitro ADME, human; conditions: pooled liver microsomes, 1 μM test compound, 37° C.
Protocol: Assay B: Microsomal Clearance:
The metabolic degradation of the test compound is assayed at 37° C. with pooled liver microsomes. The final incubation volume of 100 μl per time point contains TRIS buffer pH 7.6 at RT (0.1 M), magnesium chloride (5 mM), microsomal protein (1 mg/ml) and the test compound at a final concentration of 1 μM.
Following a short preincubation period at 37° C., the reactions are initiated by addition of beta-nicotinamide adenine dinucleotide phosphate, reduced form (NADPH, 1 mM) and terminated by transferring an aliquot into solvent after different time points (0, 5, 15, 30, 60 min). Additionally, the NADPH-independent degradation is monitored in incubations without NADPH, terminated at the last time point. The [%] remaining test compound after NADPH independent incubation is reflected by the parameter c(control) (metabolic stability). The quenched incubations are pelleted by centrifugation (10000 g, 5 min).
An aliquot of the supernatant is assayed by LC-MS/MS for the amount of parent compound. The half-life (t½ INVITRO) is determined by the slope of the semilogarithmic plot of the concentration-time profile.
The intrinsic clearance (CL_[…]) is calculated by considering the amount of protein in the incubation: CL_[…] [μl/min/mg protein]=(Ln 2/(half-life [min]*protein content [mg/ml]))*1000 CL_[…]_INVIVO [ml/min/kg]=(CL_[…] [μL/min/mg protein]×MPPGL [mg protein/g liver]×liver factor [g/kg body weight])/1000 Qh [%]=CL [ml/min/kg]/hepatic blood flow [ml/min/kg])
as §1, §2, §3

| Compound | human Hepatocytes [% Qh] [1] | IC50 (human TRPA1 ion channel) | human LM [% Qh] [2] |
| --- | --- | --- | --- |
| Cc1c(C(N)=O)sc2ncn(Cc3nnn(C[C@H](O)c4ccc(Cl)cc4)n3)c(=O)c12 [Example 1, 3-({2-[(2R)-2-(4-chlorophenyl)-2-hydroxyethyl]-2H-1,2,3,4-tetrazol-5-yl}methyl)-5-methyl-4-oxo-3H,4H-thieno[2,3-d]pyrimidine-6-carboxamide] | 12 % Qh | 0.011 µM | <23 % Qh |
| CN1CCc2c(sc3ncn(Cc4nnn(C[C@H](O)c5ccc(Cl)cc5)n4)c(=O)c23)C1=O [Example 7] | 26 % Qh | 0.016 µM | 36 % Qh |
| CNC(=O)c1sc2ncn(Cc3nnn(C[C@H](O)c4ccc(Cl)cc4)n3)c(=O)c2c1C [Example 13] | 9 % Qh | 0.02 µM | <23 % Qh |
| CNC(=O)c1sc2ncn(Cc3nnn(C[C@H](O)c4ccc(Cl)s4)n3)c(=O)c2c1C [Example 16] | 17 % Qh | 0.037 µM | <23 % Qh |
| O=C1NCCc2c1sc1ncn(Cc3nnn(C[C@H](O)c4ccc(Cl)s4)n3)c(=O)c21 [Example 17] | 22 % Qh | 0.014 µM | <23 % Qh |
| O=C1NCCc2c1sc1ncn(Cc3nnn(C[C@H](O)c4cc5cc(Cl)ccc5o4)n3)c(=O)c21 [Example 18] | 48 % Qh | 0.014 µM | 32 % Qh |
| O=C1NCCc2c1sc1ncn(Cc3nnn(C[C@H](O)c4cc5cc(F)ccc5o4)n3)c(=O)c21 [Example 19] | 26 % Qh | 0.031 µM | <23 % Qh |
| Cc1ccc([C@@H](O)Cn2nnc(Cn3cnc4sc5c(c4c3=O)CCNC5=O)n2)cc1 [Example 20] | 28 % Qh | 0.014 µM | <23 % Qh |
| N#Cc1ccc([C@@H](O)Cn2nnc(Cn3cnc4sc5c(c4c3=O)CCNC5=O)n2)s1 [Example 21] | 5 % Qh | 0.08 µM | 27 % Qh |

Second part, the compound after the results:

| human Hepatocytes [% Qh] [1] | IC50 (human TRPA1 ion channel) | human LM [% Qh] [2] | Compound |
| --- | --- | --- | --- |
| 13 % Qh | 0.012 µM | <23 % Qh | Cc1c(C(N)=O)sc2ncn(Cc3nnn(C[C@H](O)c4ccc(Br)cc4)n3)c(=O)c12 [Example 2] |
| 40 % Qh | 0.012 µM | <23 % Qh | Cc1c(C(N)=O)sc2ncn(Cc3nnn(C[C@H](O)c4cc5cc(Cl)ccc5o4)n3)c(=O)c12 [Example 3] |
| 7 % Qh | 0.012 µM | <23 % Qh | Cc1c(C(N)=O)sc2ncn(Cc3nnn(C[C@H](O)c4ccc(Cl)s4)n3)c(=O)c12 [Example 4] |
| – | 0.074 µM | <23 % Qh | Cc1c(C(N)=O)sc2ncn(Cc3nnn(C[C@H](O)c4ccc(F)c(F)c4)n3)c(=O)c12 [Example 5] |
| 36 % Qh | 0.015 µM | 43 % Qh | Cc1c(C(N)=O)sc2ncn(Cc3nnn(C[C@H](O)c4cc5ccc(Cl)cc5o4)n3)c(=O)c12 [Example 8] |
| 16 % Qh | 0.021 µM | <23 % Qh | Cc1ccc([C@@H](O)Cn2nnc(Cn3cnc4sc(C(N)=O)c(C)c4c3=O)n2)cc1 [Example 9] |
| 14 % Qh | 0.028 µM | <23 % Qh | Cc1c(C(N)=O)sc2ncn(Cc3nnn(C[C@H](O)c4ccc5c(c4)OCO5)n3)c(=O)c12 [Example 10] |
| 28 % Qh | 0.025 µM | <23 % Qh | Cc1c(C(N)=O)sc2ncn(Cc3nnn(C[C@H](O)c4cc5cc(F)ccc5o4)n3)c(=O)c12 [Example 11] |
| 31 % Qh | 0.017 µM | <23 % Qh | Cc1c(C(N)=O)sc2ncn(Cc3nnn(C[C@H](O)c4cc5ccc(F)cc5o4)n3)c(=O)c12 [Example 12] |
| 13 % Qh | 0.076 µM | <23 % Qh | CNC(=O)c1sc2ncn(Cc3nnn(C[C@H](O)c4ccc5c(c4)OCO5)n3)c(=O)c2c1C [Example 14] |
| 18 % Qh | 0.038 µM | <23 % Qh | CNC(=O)c1sc2ncn(Cc3nnn(C[C@H](O)c4ccc(C)cc4)n3)c(=O)c2c1C [Example 15] |
| 44 % Qh | 0.007 µM | 35 % Qh | Cc1c(C(N)=O)sc2ncn(Cc3nnn(C[C@H](O)c4cc5ccccc5s4)n3)c(=O)c12 [Example 22] |
| 12 % Qh | 0.006 µM | <23 % Qh | NC(=O)c1sc2ncn(Cc3nnn(C[C@H](O)c4ccc(Cl)cc4)n3)c(=O)c2c1Cl [Example 23] |

— patent US11578080B2, “Thienopyrimidones” (Boehringer Ingelheim International GmbH, priority 2019, dated 2023)
